Assay results reported in patent US20260242419A1, “A CYCLIC PEPTIDE FOR TRAPPING INTERLEUKIN-1 BETA” (Merck Sharp & Dohme LLC, priority 2023, published 2026).
Starred links: 1 amine or outer side, 2 acyl side, 3 side chain; linkers in the order of their positions; H or OH if unused. Non-standard residues stand in square brackets, D forms with d. Residues, ends and D or L forms follow the SMILES beside them. Trp(βS-Me,4-F) = C[C@@H](c1c[nH]c2cccc(F)c12)[C@H](N)C(=O)O; X35 = O=C(O)C12CC(c3ccc(C[C@H](N[*:1])C(=O)[*:2])cc3)(C1)C2; Bip(4'-COOH) = N[C@@H](Cc1ccc(-c2ccc(C(=O)O)cc2)cc1)C(=O)O; Ala(1-bicyclo(1.1.1)pentyl) = N[C@@H](CC12CC(C1)C2)C(=O)O; X21 = O=C(O)c1ccc(-c2ccc(C[C@H](N[*:1])C(=O)[*:2])cn2)cc1; dPro(4R-Bzl(4-F)) = O=C(O)[C@H]1C[C@@H](Cc2ccc(F)cc2)CN1; Ala(pyrimidin-5-yl) = N[C@@H](Cc1cncnc1)C(=O)O; Phe(4-COOH) = N[C@@H](Cc1ccc(C(=O)O)cc1)C(=O)O; X36 = O=C(O)c1ccc(C[C@H](N[*:1])C(=O)[*:2])cn1; Ala(2-pyrazinyl) = N[C@@H](Cc1cnccn1)C(=O)O; Pro(cis-4-F) = O=C(O)[C@@H]1C[C@H](F)CN1; X47 = O=C([C@H](Cc1cccnn1)N[*:1])[*:2]; 4Pal = N[C@@H](Cc1ccncc1)C(=O)O; Dab = NCC[C@H](N)C(=O)O; Dap = NC[C@H](N)C(=O)O; Aib = CC(C)(N)C(=O)O

Biological target: T1, IL-1β (Homo sapiens, UniProt P01584)
T1 construct: purchased BioLegend 579404
T1 sequence (P01584 117-269): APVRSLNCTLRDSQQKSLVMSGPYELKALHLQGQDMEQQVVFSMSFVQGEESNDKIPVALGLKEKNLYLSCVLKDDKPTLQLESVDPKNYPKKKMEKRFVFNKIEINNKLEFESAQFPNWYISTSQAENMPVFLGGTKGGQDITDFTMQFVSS
Experiment: IL-6 assay in MRC5 cells: inhibition of IL-1β induced IL-6 secretion (AlphaLISA)
Type: cell-based
Conditions: inhibition of IL-1β induced IL-6 secretion in MRC5 cells; read-out: MRC5 IC50
How it was run: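 Compound was pre-incubated 1 h at ambient temperature with recombinant human IL-1β at 2λ EC80 before adding human lung fibroblast MRC5 cells (3000/well) in EMEM with 0.025% BSA. After overnight culture at 37 °C, 5% CO2, secreted IL-6 in conditioned medium was measured by AlphaLISA; IC50 from 4-parameter logistic fits.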

Compound	IC50
C[C@@H](c1c[nH]c2cccc(F)c12)[C@@H]1NC(=O)[C@@H]2C[C@H](F)CN2C(=O)CNC(=O)[C@H](Cc2ccc(C(=O)O)nc2)NC(=O)[C@H](CC23CC(C2)C3)NC(=O)[C@H](Cc2ccc(-c3ccc(C(=O)O)cc3)cc2)NC(=O)[C@H]2C[C@@H](Cc3ccc(F)cc3)CN2C(=O)CNC(=O)[C@H](CCN)NC(=O)[C@H](CCC(N)=O)NC(=O)[C@H](Cc2cncnc2)NC(=O)C(C)(C)NC(=O)[C@H](Cc2c[nH]c3ccccc23)NC(=O)[C@H](CCC(=O)O)NC(=O)C(C)(C)NC1=O [Example 98] (cyclo([Bip(4'-COOH)][Ala(1-bicyclo(1.1.1)pentyl)][X36]G[Pro(cis-4-F)][Trp(βS-Me,4-F)][Aib]EW[Aib][Ala(pyrimidin-5-yl)]Q[Dab]G[dPro(4R-Bzl(4-F))]))	0.058 nM
C[C@@H](c1c[nH]c2cccc(F)c12)[C@@H]1NC(=O)[C@@H]2C[C@H](F)CN2C(=O)CNC(=O)[C@H](Cc2ccc(C(=O)O)cc2)NC(=O)[C@H](CC23CC(C2)C3)NC(=O)[C@H](Cc2ccc(C34CC(C(=O)O)(C3)C4)cc2)NC(=O)[C@H]2C[C@@H](Cc3ccc(F)cc3)CN2C(=O)CNC(=O)[C@H](CCN)NC(=O)[C@H](CCC(N)=O)NC(=O)[C@H](Cc2cncnc2)NC(=O)C(C)(C)NC(=O)[C@H](Cc2c[nH]c3ccccc23)NC(=O)[C@H](CCC(=O)O)NC(=O)C(C)(C)NC1=O [Example 99] (cyclo([Aib]EW[Aib][Ala(pyrimidin-5-yl)]Q[Dab]G[dPro(4R-Bzl(4-F))][X35][Ala(1-bicyclo(1.1.1)pentyl)][Phe(4-COOH)]G[Pro(cis-4-F)][Trp(βS-Me,4-F)]))	0.031 nM

Second part, the compound after the results:

IC50	Compound
0.074 nM	C[C@@H](c1c[nH]c2cccc(F)c12)[C@@H]1NC(=O)[C@@H]2C[C@H](F)CN2C(=O)CNC(=O)[C@H](Cc2ccc(C(=O)O)cc2)NC(=O)[C@H](CC23CC(C2)C3)NC(=O)[C@H](Cc2ccc(-c3ccc(C(=O)O)cc3)nc2)NC(=O)[C@H]2C[C@@H](Cc3ccc(F)cc3)CN2C(=O)CNC(=O)[C@H](CCN)NC(=O)[C@H](CCC(N)=O)NC(=O)[C@H](CN)NC(=O)C(C)(C)NC(=O)[C@H](Cc2c[nH]c3ccccc23)NC(=O)[C@H](CCC(=O)O)NC(=O)C(C)(C)NC1=O [Example 100] (cyclo([X21][Ala(1-bicyclo(1.1.1)pentyl)][Phe(4-COOH)]G[Pro(cis-4-F)][Trp(βS-Me,4-F)][Aib]EW[Aib][Dap]Q[Dab]G[dPro(4R-Bzl(4-F))]))
0.021 nM	C[C@@H](c1c[nH]c2cccc(F)c12)[C@@H]1NC(=O)[C@@H]2C[C@H](F)CN2C(=O)CNC(=O)[C@H](Cc2ccc(C(=O)O)cc2)NC(=O)[C@H](Cc2ccncc2)NC(=O)[C@H](Cc2ccc(-c3ccc(C(=O)O)cc3)cc2)NC(=O)[C@H]2C[C@@H](Cc3ccc(F)cc3)CN2C(=O)CNC(=O)[C@H](CCN)NC(=O)[C@H](CCC(N)=O)NC(=O)[C@H](Cc2cnccn2)NC(=O)C(C)(C)NC(=O)[C@H](Cc2c[nH]c3ccccc23)NC(=O)[C@H](CCC(=O)O)NC(=O)C(C)(C)NC1=O [Example 101] (cyclo([4Pal][Phe(4-COOH)]G[Pro(cis-4-F)][Trp(βS-Me,4-F)][Aib]EW[Aib][Ala(2-pyrazinyl)]Q[Dab]G[dPro(4R-Bzl(4-F))][Bip(4'-COOH)]))
0.021 nM	C[C@@H](c1c[nH]c2cccc(F)c12)[C@@H]1NC(=O)[C@@H]2C[C@H](F)CN2C(=O)CNC(=O)[C@H](Cc2ccc(C(=O)O)cc2)NC(=O)[C@H](Cc2ccncc2)NC(=O)[C@H](Cc2ccc(-c3ccc(C(=O)O)cc3)cc2)NC(=O)[C@H]2C[C@@H](Cc3ccc(F)cc3)CN2C(=O)CNC(=O)[C@H](CCN)NC(=O)[C@H](CCC(N)=O)NC(=O)[C@H](Cc2cccnn2)NC(=O)C(C)(C)NC(=O)[C@H](Cc2c[nH]c3ccccc23)NC(=O)[C@H](CCC(=O)O)NC(=O)C(C)(C)NC1=O [Example 102] (cyclo([Bip(4'-COOH)][4Pal][Phe(4-COOH)]G[Pro(cis-4-F)][Trp(βS-Me,4-F)][Aib]EW[Aib][X47]Q[Dab]G[dPro(4R-Bzl(4-F))]))
